Data taken from patent US7759384B2, “Carvedilol phosphate salts and/or solvates thereof, corresponding compositions, and/or methods of treatment” (SmithKline Beecham (Cork) Limited, priority 2002, dated 2010).
Where two headings read alike, the source gives them in different places.

Columns and labels:
[1] = cited from earlier work
[2] = aqueous solubility of carvedilol phosphate salts compared with free base and other salts; format: physicochemical; settings: novel crystalline forms

## COc1ccccc1OCCNCC(O)COc1cccc2[nH]c3ccccc3c12 (racemic) [Carvedilol]
[1]; neutral or alkaline media, above a pH of 9.0
  solubility: < 1 µg/mL
[1]; pH=5, room temperature
  saturation solubility: about 100 μg/mL
[1]; pH=7, room temperature
  saturation solubility: about 23 μg/mL

## COc1ccccc1OCCNCC(O)COc1cccc2[nH]c3ccccc3c12.O=P(O)(O)O (centres unmarked) [carvedilol dihydrogen phosphate]
[2]
  solubility compared to the free base of carvedilol: much higher solubility

## COc1ccccc1OCCNCC(O)COc1cccc2[nH]c3ccccc3c12.Cl (centres unmarked) [hydrochloride salt of carvedilol]
[1]; salt generated in situ in acidic medium, which simulates gastric fluid
  solubility in acidic medium: less soluble
